Measured values from patent US10752587B2, “Homobispiperidinyl derivatives as liver X receptor beta agonists, compositions and their use” (Merck Sharp & Dohme Corp., priority 2015, dated 2020).
pEC50: −log10 of the molar value. Read-outs that look alike come from different tables or passages of the source.

Assays:
[1] = molecular target: T1, glutathione-S-transferase (GST) tagged LXRalpha LBD (ligand binding domain) (Homo sapiens, UniProt Q13133); assay: LanthaScreen TR-FRET Liver X Receptor Coactivator Assay, co-activator recruitment to LXRalpha LBD; type: biochemical
T1 construct: purchased Invitrogen pv4655
T1 sequence (Q13133 209-447 limits assumed): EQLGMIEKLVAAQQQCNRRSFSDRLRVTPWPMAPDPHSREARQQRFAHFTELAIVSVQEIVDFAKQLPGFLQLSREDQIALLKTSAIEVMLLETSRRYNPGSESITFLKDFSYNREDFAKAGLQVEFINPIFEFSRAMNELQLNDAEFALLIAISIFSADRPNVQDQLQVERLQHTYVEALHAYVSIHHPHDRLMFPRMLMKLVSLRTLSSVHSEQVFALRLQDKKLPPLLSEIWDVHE
In short: (§1)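 Compound-induced coactivator recruitment by the GST-fused ligand binding domain, detected as TR-FRET between Tb-labelled anti-GST antibody and fluorescein-tagged coactivator peptide after room-temperature incubation. IP and Emax expressed versus T0901317 as reference agonist.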

[2] = molecular target: T2, glutathione-S-transferase (GST) tagged LXRbeta LBD (ligand binding domain) (Homo sapiens, UniProt P55055); assay: LanthaScreen TR-FRET Liver X Receptor Coactivator Assay, co-activator recruitment to LXRbeta LBD; type: biochemical
T2 construct: purchased Invitrogen pv4658.pps
T2 sequence (P55055 222-460 limits assumed): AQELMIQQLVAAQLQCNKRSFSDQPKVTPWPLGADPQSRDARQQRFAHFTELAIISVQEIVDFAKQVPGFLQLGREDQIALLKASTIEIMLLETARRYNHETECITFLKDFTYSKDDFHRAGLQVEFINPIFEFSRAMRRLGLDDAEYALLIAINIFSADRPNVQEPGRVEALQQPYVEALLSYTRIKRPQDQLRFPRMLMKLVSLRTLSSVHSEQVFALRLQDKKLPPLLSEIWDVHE
In short: as §1

[3] = efficacy at max dose, in relation to reference dual agonist T0901317, read-out: LXR alpha Activity @ max dose (%)
[4] = potency (Inflection Point, IP), co-activator recruitment to LXRalpha LBD, in relation to T0901317, read-out: LXR alpha IP
[5] = efficacy at max dose, in relation to reference dual agonist T0901317, read-out: LXR beta Activity @ max dose (%)
[6] = potency (Inflection Point, IP), co-activator recruitment to LXRbeta LBD, in relation to T0901317, read-out: LXR beta IP
[7] = potency (Inflection Point, IP), co-activator recruitment to LXRalpha LBD, in relation to T0901317

| Emax [1, 3] | pEC50 [1, 4] | Emax [2, 5] | pEC50 [2, 6] | LXR alpha IP (nM) [1, 7] | pEC50 ([1]; co-activator recruitment to GST-LXRalpha LBD, TR-FRET, read-out: LXR alpha IP (Inflection Point, potency)) | Emax ([1]; efficacy in relation to reference dual agonist T0901317, read-out: LXR alpha Activity @ max dose) | pEC50 ([2]; co-activator recruitment to GST-LXRbeta LBD, TR-FRET, read-out: LXR beta IP (Inflection Point, potency)) | Emax ([2]; efficacy in relation to reference dual agonist T0901317, read-out: LXR beta Activity @ max dose) | SMILES |
| --- | --- | --- | --- | --- | --- | --- | --- | --- | --- |
| 49% | 5.76 | 151% | 7.31 | – | – | – | – | – | CN(C)C(=O)c1ccc(N2CCC(CC3CCN(C(=O)[C@](N)(c4ccccc4)C(F)(F)F)CC3)CC2)nc1Cl [Example 7-111, 6-[4-({1-[(2R)-2-amino-3,3,3-trifluoro-2-phenylpropanoyl]piperidin-4-yl}methyl)piperidin-1-yl]-2-chloro-N,N-dimethylpyridine-3-carboxamide] |
| 0% | – | 24% | 8.22 | NO IP | – | – | – | – | COc1cc(Cl)cc([C@@](O)(C(=O)N2CCC(CC3CCN(c4ccc(C(=O)N(C)C)c(Cl)c4)CC3)CC2)C(F)(F)F)c1 [Example 2-100, 2-chloro-4-[4-({1-[(2R)-2-(3-chloro-5-methoxy-phenyl)-3,3,3-trifluoro-2-hydroxy-propanoyl]piperidin-4-yl}methyl)piperidin-1-yl]-N,N-dimethyl-benzamide] |
| 10% | – | 54% | 6.93 | NO IP | – | – | – | – | CN(C)C(=O)c1ccc(N2CCC(CC3CCN(C(=O)[C@@](N)(c4ccccc4)C(F)(F)F)CC3)CC2)nc1Cl [Example 7-110, 6-[4-({1-[(2S)-2-amino-3,3,3-trifluoro-2-phenylpropanoyl]piperidin-4-yl}methyl)piperidin-1-yl]-2-chloro-N,N-dimethylpyridine-3-carboxamide] |
| 28% | 5.70 | 105% | 6.61 | – | – | – | – | – | CNC(=O)c1ccc(N2CCC(OC3CCN(C(=O)C(O)(c4cccc(C(F)(F)F)c4)C(F)(F)F)CC3)CC2)cc1Cl (stereo not drawn) [Example 7-28, 2-chloro-N-methyl-4-{4-[(1-{3,3,3-trifluoro-2-hydroxy-2-[3-(trifluoromethyl)phenyl]propanoyl}piperidin-4-yl)oxy]piperidin-1-yl} benzamide] |
| 39% | 6.31 | 67% | 7.23 | – | – | – | – | – | O=C(c1ccc(N2CCC(CC3CCN(C(=O)[C@](O)(c4ccccc4)C(F)(F)F)CC3)CC2)cc1Cl)N1CC[C@H](F)C1 [Example 4-18] |
| 20% | 7.18 | 63% | 8.40 | – | – | – | – | – | CN(C)C(=O)c1ccc(N2CCC(CC3CCN(C(=O)[C@](O)(c4cccc(C5CC5)c4)C(F)(F)F)CC3)CC2)cc1Cl [Example 2-96, 2-chloro-4-[4-({1-[(2R)-2-(3-cyclopropyl-phenyl)-3,3,3-trifluoro-2-hydroxy-propanoyl]piperidin-4-yl}methyl)piperidin-1-yl]-N,N-dimethyl-benzamide] |
| 17% | – | 71% | 7.96 | NO IP | – | – | – | – | CN(C)C(=O)c1ccc(N2CCC(CC3CCN(C(=O)[C@](O)(c4csc5ccccc45)C(F)(F)F)CC3)CC2)cc1Cl (stereo in doubt) [Example 2-169, 4-[4-({1-[2-(1-benzothiophen-3-yl)-3,3,3-trifluoro-2-hydroxy-propanoyl]piperidin-4-yl}methyl)piperidin-1-yl]-2-chloro-N,N-dimethyl-benzamide] |
| 0% | – | 71% | 7.70 | NO IP | – | – | – | – | CCOc1cccc([C@@](O)(C(=O)N2CC(CC3CCN(c4ccc(C(=O)N(C)C)c(Cl)c4)CC3)C2)C(F)(F)F)c1 [Example 2-62, 2-chloro-4-[4-({1-[(2R)-2-(3-ethoxy-phenyl)-3,3,3-trifluoro-2-hydroxy-propanoyl]azetidin-3-yl}methyl)piperidin-1-yl]-N,N-dimethyl-benzamide] |
| 0% | – | 28% | 8.15 | NO IP | – | – | – | – | O=C(c1ccc(N2CCC(CC3CCN(C(=O)[C@](O)(c4cc(Cl)cc(Cl)c4)C(F)(F)F)CC3)CC2)cc1Cl)N1CCC[C@H]1CO [Example 4-24, (2R)-3-(4-{[1-(3-chloro-4-{[(2S)-2-(hydroxymethyl)pyrrolidin-1-yl]carbonyl}phenyl)piperidin-4-yl]methyl}piperidin-1-yl)-2-(3,5-dichlorophenyl)-1,1,1-trifluoro-3-oxopropan-2-ol] |
| 31% | 6.78 | 80% | 7.92 | – | – | – | – | – | Cc1cc(N2CCC(CC3(C)CCN(C(=O)[C@](O)(c4cc(F)cc(Cl)c4)C(F)(F)F)CC3)CC2)ccc1C(=O)N(C)C [Example 2-75, 4-[4-({1-[(2R)-2-(3-chloro-5-fluorophenyl)-3,3,3-trifluoro-2-hydroxy-propanoyl]-4-methylpiperidin-4-yl}methyl)piperidin-1-yl]-N,N,2-trimethyl-benzamide] |
| 40% | 5.80 | 112% | 7.28 | – | – | – | – | – | CNC(=O)c1ccc(N2CCC(OC3CCN(C(=O)C(O)(c4cccc(Cl)c4)C(F)(F)F)CC3)CC2)cc1Cl (stereo not drawn) [Example 7-31, 2-chloro-4-[4-({1-[2-(3-chlorophenyl)-3,3,3-trifluoro-2-hydroxypropanoyl]piperidin-4-yl}oxy)piperidin-1-yl]-N-methylbenzamide] |
| 7% | – | 59% | 8.30 | NO IP | – | – | – | – | CN(C)C(=O)c1ccc(N2CCC(CC3CCN(C(=O)[C@](O)(c4cc(Cl)cc(Cl)c4)C(F)(F)F)CC3)CC2)cc1Cl [Example 2-93, 2-chloro-4-[4-({1-[(2R)-2-(3,5-dichloro-phenyl)-3,3,3-trifluoro-2-hydroxy-propanoyl]piperidin-4-yl}methyl)piperidin-1-yl]-N,N-dimethyl-benzamide] |
| 2% | – | 44% | 7.35 | NO IP | – | – | – | – | Cc1cc(N2CCC(CC3(C)CCN(C(=O)[C@](O)(c4cccc(OC(C)C)c4)C(F)(F)F)CC3)CC2)ccc1C(=O)N(C)C [Example 2-77, N,N,2-trimethyl-4-{4-[(4-methyl-1-{(2R)-3,3,3-trifluoro-2-hydroxy-2-[3-(1-methylethoxy)phenyl]propanoyl}piperidin-4-yl)methyl]piperidin-1-yl}benzamide] |
| 54% | 7.03 | 104% | 8.05 | – | – | – | – | – | CNC(=O)c1ccc(N2CCC(CC3CCN(C(=O)C(O)(c4cc(F)cc(F)c4)C(F)(F)F)CC3)CC2)cc1Cl (stereo not drawn) [Example 7-122, 2-chloro-4-[4-({1-[2-(3,5-difluorophenyl)-3,3,3-trifluoro-2-hydroxypropanoyl]piperidin-4-yl}methyl)piperidin-1-yl]-N-methylbenzamide] |
| – | – | – | – | – | 5.93 | 25% | 7.22 | 67% | CN(C)C(=O)c1ccc(N2CCC(CC3CCN(S(=O)(=O)c4cccc(F)c4)CC3)CC2)cc1Cl [Example 13-7, 2-chloro-4-[4-({1-[(3-fluorophenyl)sulfonyl]-piperidin-4-yl}methyl)-piperidin-1-yl]-N,N-dimethylbenzamide] |
| 42% | 6.59 | 84% | 7.62 | – | – | – | – | – | CNC(=O)c1ccc(N2CCC(CC3CCN(C(=O)[C@](O)(c4cccc(C(F)(F)F)c4)C(F)(F)F)CC3)CC2)nc1Cl [Example 7-150, 2-chloro-N-methyl-6-{4-[(1-{(2R)-3,3,3-trifluoro-2-hydroxy-2-[3-(trifluoromethyl)phenyl]propanoyl}piperidin-4-yl)methyl]piperidin-1-yl}pyridine-3-carboxamide] |
| 42% | 5.66 | 88% | 6.93 | – | – | – | – | – | COCCN(C)C(=O)c1ccc(N2CCC(OC3CCN(C(=O)[C@](O)(c4ccccc4)C(F)(F)F)CC3)CC2)cc1Cl [Example 4-14, 2-chloro-N-(2-methoxyethyl)-N-methyl-4-[4-({1-[(2R)-3,3,3-trifluoro-2-hydroxy-2-phenylpropanoyl]piperidin-4-yl}oxy)piperidin-1-yl]benzamide] |
| 29% | 6.27 | 69% | 7.57 | – | – | – | – | – | CN(C)C(=O)c1ccc(N2CCC(CC3CCN(C(=O)C(O)(c4cccc(F)c4)C(F)F)CC3)CC2)cc1Cl (stereo not drawn) [Example 2-122, 2-chloro-4-[4-({1-[3,3-difluoro-2-(3-fluorophenyl)-2-hydroxy-propanoyl]piperidin-4-yl}methyl)piperidin-1-yl]-N,N-dimethyl-benzamide] |
